Test results reported in patent US12642786B2, “Methods, compositions and kits for treating multiple sclerosis and other disorders” (The Johns Hopkins University, priority 2018, dated 2026).

Columns and labels:
[1] = tested on: CD4+, Th1 and Th17 lymphocytes in EAE mice; experiment: Flow cytometry of spinal cord in EAE mice treated from clinical score 1.0; format: in vivo, C57BL/6J mice; conditions: day 18 post-immunization (late peak), treatment started at score 1.0
Experimental: Mice were killed with pentobarbital and perfused via cardiac puncture with ice-cold HBSS without cations. Brain, spinal cord (collected using hydrostatic pressure), spleen, and lymph node tissue were isolated after perfusion and were mechanically dissociated by passing through 100-μm cell strainers. For CNS tissue, after dissociation, infiltrating mononuclear cells were separated from myelin debris using a 37/70% percoll gradient. After dissociation, spleens were incubated in ACK lysis buffer to remove red blood cell contamination. Cells were counted using a MACSQuant flow cytometer (Miltenyi Biotec).
(§1) For surface marker and intracellular cytokine staining of T cells, the cells were first restimulated with a cell stimulation mixture with protein transport inhibitors (eBioscience, catalog #00-4975-03) for 4 h in cRPMI at 37° C. They then underwent live/dead and surface marker staining as earlier. For intracellular cytokine staining, cells were permeabilized and fixed using either IC Fixation buffer for cytokine analysis (eBioscience, 00-8222-49) or FoxP3 fixation/permeabilization buffer for transcription factor analysis (eBioscience, 00-5521-00) after manufacturer recommended protocol and incubated with specific conjugated antibodies for the specified proteins in permeabilization buffer for 1 h.
Cells were analyzed by flow cytometry using a MACSQuant flow cytometer (Miltenyi Biotec). Flow data analysis was performed in FlowJo (FlowJo) or FlowLogic (Inivai).

LPS-stimulated BMDCs = experiment: BMDC cytokine secretion by ELISA; format: cell-based, C57BL/6J mice
Experimental: BMDCs were generated as described in Lutz, “An advanced culture method for generating large quantities of highly pure dendritic cells from mouse bone marrow,” 1999, J. Immunol. Methods 223:77-92, with minor modifications. Briefly, femurs were removed from 6-10-wk-old female C57BL/6J mice, cut on both ends, and marrow flushed with PBS. Bone marrow cells were then pelleted by centrifugation (500×g for 8 min), resuspended in red blood cell lysis buffer (Sigma) for 1 min, and quenched with excess PBS. After another centrifugation, cells were resuspended in complete RPMI (cRPMI) media consisting of RPMI-1640 with GlutaMAX™ supplement (Thermo Fisher Scientific) supplemented with 10% FBS, penicillin-streptomycin (Gibco), and 50 μM 2-mercaptoethanol (Sigma). On day 0, ˜2×10^6 cells were then seeded per 100-mm plate in 10 mL media containing 20 ng/mL rmGM-CSF (Peprotech). On day 3, an additional 10 mL fresh cRPMI media containing 20 ng/mL rmGM-CSF was added to each plate. On day 6, half the culture supernatant from each plate was removed and centrifuged, and the pelleted cells resuspended in 10 mL fresh cRPMI with 20 ng/mL rmGM-CSF and added back to the plates. On day 8, all nonadherent cells (representing the BMDC fraction) were collected, pelleted by centrifugation, resuspended in fresh cRPMI media with 20 ng/mL rmGM-CSF, and plated into 24-well dishes. These BMDCs were then treated overnight with or without LPS 100 ng/mL plus the indicated doses of bryo-1. The following day (day 9), these cells were then assayed by flow cytometry or cytokine ELISA.
After overnight treatment of BMDCs or mPMs with LPS 100 ng/mL±bryo-1, culture supernatants were collected and cytokine production was assayed using ELISA kits for IL-12 p70 (catalog #88-7121-22), IL-6 (catalog #88-7064-22), and IL-10 (catalog #88-7105-22) purchased from eBioscience, according to manufacturer's instructions. Plates were read at 450 nm on a tabletop plate reader.

naive CD4+ lymphocytes = experiment: Naive CD4+ T cells stimulated with α-CD3/CD28 antibodies, flow cytometry; format: cell-based, C57BL/6J mice
Experimental: as §1
Spleens were harvested from 6-10-wk-old female C57BL/6J mice, and single-cell suspensions were generated in FACS buffer by disrupting spleens with the plunger of a syringe over a 70-μm nylon cell strainer (BD Falcon), pelleting cells by centrifugation (500×g for 8 min), and resuspending in fresh FACS buffer. Naive CD4^+ cells were then isolated by negative selection using an isolation kit from STEMCELL Technologies (catalog #19765).
Tissue culture plates were coated with α-CD3 antibody (BD Biosciences) by incubating them with 0.25-1.0 m/mL of antibody diluted in sterile PBS overnight at 4° C. or for 2-4 h at 37° C. The antibody solution was then removed, plates were washed once with sterile PBS, and naive CD4^+ T cells were seeded along with 0.25-1.0 m/mL α-CD28 antibody (BD Biosciences) in the presence or absence of the indicated doses of bryo-1. The cells were cultured for 3 d and then analyzed by flow cytometry.

[2] = tested on: mixed glial cultures (MGCs); experiment: Mixed glial cultures, iNOS / Arg1 immunoblot; format: cell-based, C57BL/6J mice
Experimental: Mixed glial cultures (MGCs) obtained from the cerebral cortices of P1-P3 neonatal C57BL/6J mice were used, prepared as described by Saura et al., Glia (2003) 44:183-189. Mixed glial cultures were treated with LPS (FIG. 6A) or IL4 (FIG. 6B) ±vehicle or the indicated dose of bryo-1. Expression of iNOS or Argl, respectively, was assessed by immunoblot. Images are representative of 3 independent experiments.

[3] = 200 nM, cells stimulated with 0.25 μg/mL of α-CD3 and α-CD28 antibodies, 3 d

CCC/C=C/C=C/C(=O)OC1/C(=C/C(=O)OC)CC2CC(C(C)O)OC(=O)CC(O)CC3CC(OC(C)=O)C(C)(C)C(O)(CC4C/C(=C/C(=O)OC)CC(/C=C/C(C)(C)C1(O)O2)O4)O3 (stereo not drawn) [bryo-1, Bryostatin-1]
numbers of Th1 cells in spinal cord [1]: significantly diminished numbers | numbers of Th17 cells in spinal cord [1]: significantly diminished numbers | total CD4+ lymphocytes in spinal cord [1]: near-significant trend (P=0.06) toward decreased | LPS-induced secretion of IL-12 (LPS-stimulated BMDCs; BMDCs, LPS 100 ng/mL, bryo-1 10 nM, overnight): abrogated | secretion of IL-10 (LPS-stimulated BMDCs; BMDCs, LPS 100 ng/mL, overnight): significantly augmented | concentration with direct anti-inflammatory effects on DCs and macrophages (as low as) (LPS-stimulated BMDCs; DCs and macrophages): 10 nM | expression of regulatory T-cell marker FoxP3 (naive CD4+ lymphocytes; [3]): increased expression | up-regulation of CD44 (naive CD4+ lymphocytes; [3]): inhibited up-regulation | up-regulation of IFNγ (naive CD4+ lymphocytes; [3]): inhibited up-regulation | effects on CD44, IFNγ and FoxP3 with stronger T-cell stimulation (naive CD4+ lymphocytes; of α-CD3/CD28): these effects were lost | expression of Argl (M2 marker) ([2]; MGCs treated with IL4, dose as low as 1 nM): dramatically augmented expression | induction of iNOS (an M1 marker) by LPS ([2]; MGCs treated with LPS): blocked the induction
